What all share (test): KAM-matrix competition in K562 lysate
Format in all cases: binding

One assay concerns the target T1, LATS1 (Homo sapiens, UniProt O95835).
T1 construct: endogenous in cells; host or cells: K562
T1 sequence (O95835 1-1130): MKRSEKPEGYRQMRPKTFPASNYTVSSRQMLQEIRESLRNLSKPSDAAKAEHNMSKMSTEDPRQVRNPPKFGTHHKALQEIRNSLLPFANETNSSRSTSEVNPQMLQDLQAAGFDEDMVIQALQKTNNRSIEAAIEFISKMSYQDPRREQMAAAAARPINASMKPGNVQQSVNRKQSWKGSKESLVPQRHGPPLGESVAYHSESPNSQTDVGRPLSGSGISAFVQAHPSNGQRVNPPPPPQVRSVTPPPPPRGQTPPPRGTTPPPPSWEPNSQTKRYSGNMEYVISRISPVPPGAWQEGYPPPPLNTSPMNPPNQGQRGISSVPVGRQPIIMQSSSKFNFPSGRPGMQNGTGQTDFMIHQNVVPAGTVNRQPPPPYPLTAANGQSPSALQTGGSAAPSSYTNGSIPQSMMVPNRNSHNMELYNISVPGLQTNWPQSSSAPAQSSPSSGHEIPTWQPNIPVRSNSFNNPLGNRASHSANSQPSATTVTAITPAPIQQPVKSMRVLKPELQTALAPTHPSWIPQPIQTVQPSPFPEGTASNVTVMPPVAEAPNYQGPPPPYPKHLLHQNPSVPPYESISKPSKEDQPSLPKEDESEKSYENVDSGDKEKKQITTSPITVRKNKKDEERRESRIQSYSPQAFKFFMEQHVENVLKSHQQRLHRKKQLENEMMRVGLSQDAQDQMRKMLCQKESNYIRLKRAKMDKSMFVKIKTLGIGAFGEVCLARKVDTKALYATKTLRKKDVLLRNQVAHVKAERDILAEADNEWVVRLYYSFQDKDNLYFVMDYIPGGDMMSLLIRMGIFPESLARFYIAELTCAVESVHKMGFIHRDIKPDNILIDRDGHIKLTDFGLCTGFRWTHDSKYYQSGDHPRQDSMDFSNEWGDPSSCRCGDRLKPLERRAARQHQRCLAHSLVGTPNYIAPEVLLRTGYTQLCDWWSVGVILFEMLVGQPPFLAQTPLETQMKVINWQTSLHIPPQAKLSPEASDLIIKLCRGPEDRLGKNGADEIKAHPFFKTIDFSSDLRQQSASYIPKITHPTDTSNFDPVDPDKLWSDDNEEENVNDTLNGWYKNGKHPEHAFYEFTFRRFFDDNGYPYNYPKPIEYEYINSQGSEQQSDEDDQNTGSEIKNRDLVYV
How it is done: (§1) Supplement 12953_2017_125_MOESM1_ESM.zip/MS_Supp Info.xlsx, sheet "KAM" | column: 10 uM KAM; 1 uM KAM; 0.1 uM KAM; 0.01 uM KAM; 0.001 uM KAM; RB50

In the next assay the target is T2, STK4 (Homo sapiens, UniProt Q13043).
T2 construct: endogenous in cells; host or cells: K562
T2 sequence (Q13043 1-487): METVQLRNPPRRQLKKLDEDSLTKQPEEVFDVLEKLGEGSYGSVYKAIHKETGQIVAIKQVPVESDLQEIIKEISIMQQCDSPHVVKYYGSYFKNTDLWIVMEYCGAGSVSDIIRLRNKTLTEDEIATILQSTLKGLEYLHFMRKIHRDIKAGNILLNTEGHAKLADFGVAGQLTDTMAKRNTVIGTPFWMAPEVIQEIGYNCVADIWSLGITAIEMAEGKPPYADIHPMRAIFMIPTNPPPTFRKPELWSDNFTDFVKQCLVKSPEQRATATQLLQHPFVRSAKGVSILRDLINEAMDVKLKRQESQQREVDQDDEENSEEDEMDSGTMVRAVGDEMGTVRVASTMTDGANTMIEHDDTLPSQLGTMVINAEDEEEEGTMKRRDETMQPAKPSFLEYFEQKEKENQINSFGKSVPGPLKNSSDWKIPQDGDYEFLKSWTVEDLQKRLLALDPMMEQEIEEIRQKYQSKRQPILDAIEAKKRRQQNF
The procedure: as §1

The target of the next assay is T3, TBK1 (Homo sapiens, UniProt Q9UHD2).
T3 construct: endogenous in cells; host or cells: K562
T3 sequence (Q9UHD2 1-729): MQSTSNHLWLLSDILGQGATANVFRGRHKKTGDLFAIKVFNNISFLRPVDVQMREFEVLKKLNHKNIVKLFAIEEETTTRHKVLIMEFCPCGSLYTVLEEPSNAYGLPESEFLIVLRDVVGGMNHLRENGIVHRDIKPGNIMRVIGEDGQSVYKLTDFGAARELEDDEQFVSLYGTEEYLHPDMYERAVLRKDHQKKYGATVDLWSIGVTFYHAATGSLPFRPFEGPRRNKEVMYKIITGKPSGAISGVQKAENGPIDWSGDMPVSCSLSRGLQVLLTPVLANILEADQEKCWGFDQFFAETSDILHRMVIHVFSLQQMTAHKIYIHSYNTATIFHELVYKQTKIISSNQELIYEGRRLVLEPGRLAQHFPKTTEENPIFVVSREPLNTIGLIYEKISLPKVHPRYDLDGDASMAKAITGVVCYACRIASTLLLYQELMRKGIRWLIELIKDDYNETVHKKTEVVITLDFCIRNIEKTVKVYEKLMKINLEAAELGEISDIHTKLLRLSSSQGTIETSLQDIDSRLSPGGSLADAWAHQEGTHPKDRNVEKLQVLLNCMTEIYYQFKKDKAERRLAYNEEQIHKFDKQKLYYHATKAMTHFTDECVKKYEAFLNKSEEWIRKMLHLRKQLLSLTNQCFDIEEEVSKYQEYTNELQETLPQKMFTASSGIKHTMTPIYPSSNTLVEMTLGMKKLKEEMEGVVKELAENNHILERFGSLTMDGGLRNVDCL
The procedure: as §1

Where [1] appears, read: read-out: RB50 (the source's name).

Regarding `N#CCc1ccc(Nc2nc(NCCCN)cc(Nc3cc(C4CC4)[nH]n3)n2)cc1` [KAM], the “median Log10 fold change” value at LATS1 (0.001 uM KAM) is -0.01464; on LATS1 (0.01 uM KAM), -0.02487; on LATS1 (0.1 uM KAM), -0.2673; at LATS1 (1 uM KAM), -0.4734; at LATS1 (10 uM KAM), -0.4675; on STK4 (0.001 uM KAM), -0.002208. Also, the “median Log10 fold change” value at STK4 (0.01 uM KAM) is listed as -0.01313; at STK4 (0.1 uM KAM), -0.2747; on STK4 (1 uM KAM), -0.6557; on STK4 (10 uM KAM), -0.6912; at TBK1 (0.001 uM KAM), -0.0003533; on TBK1 (0.01 uM KAM) it was 0.01133. Further, the “median Log10 fold change” value on TBK1 (0.1 uM KAM) is -0.1059; on TBK1 (1 uM KAM), -0.5242; at TBK1 (10 uM KAM), -0.6823. The IC50 on LATS1 (setting [1]) was 206 nM; at STK4 (setting [1]), 146 nM; at TBK1 (setting [1]) it was 452 nM.

The values are drawn from article PMC5513037, “Examining the influence of specificity ligands and ATP-competitive ligands on the overall effectiveness of bivalent kinase inhibitors” (Proteome Science, 2017).
